# Data: publication PMC10354055, “An optimized Nurr1 agonist provides disease-modifying effects in Parkinson’s disease models” (Nature Communications, 2023)
# “And” between values parts separate entries of the source, which are not always exact repeats. Equal entries are not always repeated.
# What was measured:
# HeLa cells [1] = experiment: Autophagic flux, Western blot LC3B and p62, HeLa cells; type: cell-based; conditions: HeLa, LC3B-II and p62
# Description: Experiments were confirmed by duplicate measurements of the same sample. Quantification of immunoreactive bands was performed using ImageJ software (NIH, Bethesda, MD, USA) and expressed as a relative ratio against β-actin.
# The band intensities were quantified using ImageJ and normalized against β-actin.
# N27-A cells = experiment: Cell viability, MTT reduction, MPP+-treated N27-A cells; type: cell-based, rat; conditions: Fig. 2a, CQ 100 µM, 4A7C-301 1 µM
# [2] = test system: AAV-αSyn-induced male mice; experiment: Pole test, AAV-αSyn-induced PD model mice; type: in vivo, mouse; conditions: αSynWT and αSynA53T mice; CQ 40, 4A7C-301 5 mg/kg/day i.p.
# From the text: Adeno-associated viruses (AAVs) expressing GFP only or αSyn (wild-type or A53T) were kindly provided by Dr. Yoon Seong Kim from the University of Central Florida. Recombinant AAV vectors were produced using modified pAAV-IRES-hrGFP (Agilent) to express wild-type and mutant human αSyn under control of the CMV promoter. Viral particles (AAV2) were produced at the University of Iowa Viral Vector Core according to standard operating procedures (https://medicine.uiowa.edu/vectorcore/). […] AAV vectors were delivered into the substantia nigra unilaterally by stereotaxic surgery.
# Mice were trained to descend a vertical metal rod wrapped with rough tape (80 cm high, 12 mm diameter) once per day for 2 days, and then the baseline was measured before the pole test (3 days before the MPTP injection or the first pole test at week 2). Mice were placed head-upward on the pole and total descent time was recorded.
# [3] = test system: mouse ventral mesencephalic (VM) primary cells; experiment: Dopaminergic gene expression, qRT-PCR, primary VM cells with 6-OHDA; type: cell-based; conditions: VM primary cells, decreased by 6-OHDA; CQ 20 µM, 4A7C-301 0.5 µM
# Description: Total RNA was extracted using the GeneJET RNA Purification Kit (Thermo Fisher Scientific) and 100 ng of RNA was subjected to cDNA synthesis using Invitrogen Superscript cDNA Synthesis Kit (Invitrogen) according to the manufacturer’s protocol. qRT-PCR was performed using a CFX Connect Real-Time System (Bio-Rad) in a 20 μl volume mixture containing 2X SsoAdvanced Universal SYBR Green Supermix (Bio-Rad), 100 ng/μl of forward and reverse primers, and 1 μl of cDNA sample. Gene expression levels were quantified by the 2^∆∆CT method (Ct of target gene—Ct of glyceraldehyde-3-phosphate dehydrogenase (GAPDH). The following primers were used for qRT-PCR: TH forward: 5′-[…]-3′, reverse: 5′-[…]-3′; DAT forward: 5′-[…]-3′, reverse: 5′-[…]-3′; AADC forward: 5′-[…]-3′, reverse: 5′-[…]-3′; VMAT2 forward: 5′-[…]-3′, reverse: 5′-[…]-3′; c-Ret forward: 5′-[…]-3′, reverse: 5′-[…]-3′; TNFα forward: 5′-[…]-3′; reverse: 5′-[…]-3′; GAPDH, forward 5′-[…]-3′, reverse 5′-[…]-3′.
# Briefly, dissected VM brain tissues were collected in ice-cold Dulbecco’s phosphate-buffered saline (DPBS) and then mechanically dissociated using pipettes. Thereafter, dissociated tissues were incubated in 0.05 % Trypsin-EDTA (Invitrogen) for 5 min at 37 °C. The cell suspension was plated onto glass coverslips in 48-well plates pre-coated with […] poly-L-ornithine, 5 μg/ml Fibronectin or 1 μg/ml Laminin at a density of 2.0 × 10^5 cells/cm^2 in differentiation medium (1% heat-inactivated FBS, 2 mM L-glutamine, 50X B27 supplement, 100 μM ascorbic acid and 2 μg/ml bFGF in Neurobasal media).
# MPTP-induced male mice = experiment: Olfactory discrimination test, MPTP-induced PD model mice; type: in vivo, mouse
# Description: MPTP (Sigma-Aldrich) was intraperitoneally (i.p.) injected (30 mg/kg) for 5 days (Day 1-5). […] To test dyskinetic involuntary behavior, an L-DOPA injected group was included, which received 50 mg/kg of L-DOPA and 15 mg/kg of benserazide (Sigma-Aldrich) (i.p.) for 16 days (Day 1–16). All compounds were administered 6 h post-MPTP injection to avoid any effect of compounds on the MPTP metabolism in the brain. Motor and non-motor related behavior tests were performed on the following days as described in Fig. 4a in an assessor- and observer-blinded fashion. Pre-training and baseline setup for motor-related behaviors were performed 3 days prior to the injections. Mice were sacrificed and subjected to immunohistochemistry. Mice were housed at the Animal Care Facilities of McLean Hospital under a 12-h light/12-h dark cycle, ambient temperature and humidity. Animals were handled in accordance with McLean Hospital’s Institutional Animal Care and Use Committee (Protocol #: 2015N000002) and followed National Institutes of Health guidelines.
# The olfactory discrimination test was designed based on Prediger et al.. Briefly, mice were placed in a chamber (40 (w) × 20 (d) × 20 (h) cm) segmented with two identical compartments containing fresh sawdust (non-familiar odor) on one side and unchanged sawdust (familiar odor; maintained for 3 days before the test) on the other side. Mice could choose between one or another area by freely passing through an open door, for 5 min. Mice movements were monitored with EthoVision XT version 7.0 (Noldus) and time (s) and distance (cm) traveled in each compartment were recorded and analyzed.
# HeLa cells [4] = experiment: Autophagolysosome (APL) formation assay, mRFP-GFP-LC3, HeLa cells; type: cell-based; conditions: CQ 20 µM, 4A7C-301 1 µM
# Description: Nurr1 transactivity was normalized to β-galactosidase activity.
# HeLa and N27-A cells were transfected with tandem mRFP-GFP-LC3 (Addgene) plasmid using Lipofectamine 2000 (Invitrogen) in 24-well plates. After 24 h, cells were incubated in starvation medium (Earle’s Balanced Salt Solution, EBSS; Lonza) containing bafilomycin A1 (BafA1, 10 nM), CQ (20 µM), or 4A7C-301 (1 µM) for 6 h and then fixed with 4% formaldehyde for fluorescence detection. Images were taken using a KEYENCE microscope and red (mRFP) LC3 dots and yellow (mRFP+GFP) LC3 dots were counted from three independent wells for each treatment group. 10 cells were randomly selected and counted from each well and a total of 30 cells were analyzed for each treatment group in both HeLa and N27-A cells.
smiles,measurement,setting,value
"CCN(CC)CCCC(C)Nc1ccnc2cc(Cl)ccc12 (stereo not shown) [CQ, chloroquine]",autophagic flux (in words),HeLa cells [1],failed to terminate
same,MTT reduction (%),N27-A cells; Control,57.8947% and 66.3158% and 61.0526% and 65.2632%
same,MTT reduction (%),N27-A cells; Nurr1 KD,34.0206% and 28.866% and 35.0515% and 27.8351%
same,MTT reduction (%),N27-A cells; Nurr1 OE,79.3814% and 82.4742% and 84.5361% and 87.6289%
same,"motor deficits, pole test (in words)",[2],partial recovery
same,dopaminergic gene expression (in words),[3],significantly rescued
same,"olfaction, olfactory discrimination test (in words)","MPTP-induced male mice; CQ 40, 4A7C-301 5, L-DOPA 50 mg/kg/day, i.p.",significantly restored
same,Velocity,"MPTP-induced male mice; Figure 4e, MPTP-induced mice, individual animal values",3.95 cm/s and 4.45 cm/s and 4.51 cm/s and 5.91 cm/s and 5.61 cm/s and 5.73 cm/s and 4.26 cm/s and 5.02 cm/s and 3.4 cm/s and 5.27 cm/s and 6.07 cm/s
same,percentage of red dots among total LC3 dots,HeLa cells [4]; EBSS 6 h,21.7%
same,APL formation / autophagy (in words),"HeLa cells [4]; EBSS, BafA1 10 nM",significantly inhibited
